From patent publication US10618918B2, “Substituted boronic acids as antimicrobials” (priority 2015, dated 2020)

Legend:
ECL1002 = experiment: Aztreonam potentiation (MPC@4), strain ECL1002; conditions: minimum BLI concentration inhibiting growth with aztreonam 4 μg/mL; tested up to 40 μg/mL
ec302 TEM-10 = experiment: Aztreonam potentiation (MPC@4), strain ec302 TEM-10; conditions: minimum BLI concentration inhibiting growth with aztreonam 4 μg/mL; tested up to 40 μg/mL
EC1010 CMY-6 = experiment: Aztreonam potentiation (MPC@4), strain EC1010 CMY-6; conditions: minimum BLI concentration inhibiting growth with aztreonam 4 μg/mL; tested up to 40 μg/mL
PAM1032/KPC-2 = experiment: Biapenem potentiation MPC64 in PAM1032/KPC-2 (efflux proficient, overexpresses MexAB-OprM); type: cell-based, Pseudomonas aeruginosa; conditions: BLI concentration decreasing biapenem MIC 64-fold, from 32 μg/ml to 0.5 μg/ml; efflux proficient strain
Procedure: (§1) Efflux of BLIs from Pseudomonas aeruginosa by the MexAB-OprM efflux pump was also evaluated. The plasmid expressing the gene encoding KPC-2 was introduced into two strains of P. aeruginosa, PAM1032 and PAM 1154 that overexpressed or lacked MexAB-OprM, respectively. […] Potency of BLIs to potentiate biapenem in these strains was determined.

KP1086 OXA-48 = experiment: Biapenem potentiation (MPC@1), strain KP1086 OXA-48; type: cell-based; conditions: minimum BLI concentration inhibiting growth with biapenem 1 μg/mL; tested up to 40 μg/mL
Procedure: (§2) Biapenem was present in the test medium at 1 μg/mL. […] Table 3 summarizes the BLI potency of biapenem potentiation (MPC@1) for two strains overexpressing class A (KPC) and class D (OXA-48) carbapenemases. Biapenem MIC for each strain is also shown.

KP1004 KPC-2 [1] = experiment: Aztreonam potentiation (MPC@4), strain KP1004 KPC-2; conditions: minimum BLI concentration inhibiting growth with aztreonam 4 μg/mL; tested up to 40 μg/mL
ec308 SHV-5 = experiment: Aztreonam potentiation (MPC@4), strain ec308 SHV-5; conditions: minimum BLI concentration inhibiting growth with aztreonam 4 μg/mL; tested up to 40 μg/mL
KP1009 CTX-M-15 = experiment: Aztreonam potentiation (MPC@4), strain KP1009 CTX-M-15; conditions: minimum BLI concentration inhibiting growth with aztreonam 4 μg/mL; tested up to 40 μg/mL
KP1010 SHV-12 = experiment: Aztreonam potentiation (MPC@4), strain KP1010 SHV-12; conditions: minimum BLI concentration inhibiting growth with aztreonam 4 μg/mL; tested up to 40 μg/mL
KP1004 KPC-2 [2] = experiment: Biapenem potentiation (MPC@1), strain KP1004 KPC-2; type: cell-based; conditions: minimum BLI concentration inhibiting growth with biapenem 1 μg/mL; tested up to 40 μg/mL
Procedure: as §2

[3] = target: purified class A, C and D enzymes (β-lactamases) (Enterobacter cloacae, UniProt P05364); experiment: biochemical; type: biochemical; conditions: purified P99; nitrocefin (NCF) as reporter substrate
[4] = target: T1, purified class A, C and D enzymes (β-lactamases) (UniProt P0AD64, L31Q/G234S/E235K, species not given); experiment: biochemical; type: biochemical; conditions: purified SHV-12; nitrocefin (NCF) as reporter substrate; read-out: Ki (SHV-12, NCF)
T1 construct: Ki (SHV-12, NCF), uM; other: purified SHV-12; nitrocefin (NCF) as reporter substrate
T1 sequence (P0AD64 1-286 L31Q/G234S/E235K): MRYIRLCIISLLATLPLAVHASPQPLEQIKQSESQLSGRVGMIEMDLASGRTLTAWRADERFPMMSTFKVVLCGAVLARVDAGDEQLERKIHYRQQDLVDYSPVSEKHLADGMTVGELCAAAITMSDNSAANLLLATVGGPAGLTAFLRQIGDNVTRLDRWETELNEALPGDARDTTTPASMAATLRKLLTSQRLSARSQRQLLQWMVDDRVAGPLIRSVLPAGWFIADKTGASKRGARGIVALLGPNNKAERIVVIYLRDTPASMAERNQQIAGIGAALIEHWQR

[5] = target: purified class A, C and D enzymes (β-lactamases) (Klebsiella pneumoniae, UniProt Q6XEC0); experiment: biochemical; type: biochemical; conditions: purified OXA-48; nitrocefin (NCF) as reporter substrate
[6] = target: purified class A, C and D enzymes (β-lactamases) (Klebsiella pneumoniae, UniProt Q9F663); experiment: biochemical; type: biochemical; conditions: purified KPC-2; nitrocefin (NCF) as reporter substrate
[7] = target: purified class A, C and D enzymes (β-lactamases) (Escherichia coli, UniProt Q9L5C7); experiment: biochemical; type: biochemical; conditions: purified CTX-M-14; nitrocefin (NCF) as reporter substrate
PAM1154/KPC-2 = experiment: Biapenem potentiation MPC64 in PAM1154/KPC-2 (efflux deficient, lacks MexAB-OprM); type: cell-based, Pseudomonas aeruginosa; conditions: BLI concentration decreasing biapenem MIC 64-fold, from 32 μg/ml to 0.5 μg/ml; efflux deficient strain
Procedure: as §1

KP1005 CTX-M-14 = experiment: Tigemonam potentiation (MPC@4), strain KP1005 CTX-M-14; conditions: minimum BLI concentration inhibiting growth with tigemonam 4 μg/mL; tested up to 40 μg/mL

purified class A, C and D enzymes (β-lactamases) (Enterobacter cloacae, UniProt P05364), sequence (P05364 21-381): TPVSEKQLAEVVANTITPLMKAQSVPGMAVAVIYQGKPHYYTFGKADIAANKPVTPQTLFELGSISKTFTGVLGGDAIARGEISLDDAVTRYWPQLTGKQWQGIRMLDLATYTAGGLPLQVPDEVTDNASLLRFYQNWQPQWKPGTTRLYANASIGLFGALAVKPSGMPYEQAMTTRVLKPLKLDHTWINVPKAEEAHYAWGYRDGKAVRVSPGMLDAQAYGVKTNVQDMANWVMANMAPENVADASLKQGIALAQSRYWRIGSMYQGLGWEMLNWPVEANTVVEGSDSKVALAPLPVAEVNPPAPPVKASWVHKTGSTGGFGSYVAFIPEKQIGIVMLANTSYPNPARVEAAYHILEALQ
purified class A, C and D enzymes (β-lactamases) (Escherichia coli, UniProt Q9L5C7), sequence (Q9L5C7 entry or part of it): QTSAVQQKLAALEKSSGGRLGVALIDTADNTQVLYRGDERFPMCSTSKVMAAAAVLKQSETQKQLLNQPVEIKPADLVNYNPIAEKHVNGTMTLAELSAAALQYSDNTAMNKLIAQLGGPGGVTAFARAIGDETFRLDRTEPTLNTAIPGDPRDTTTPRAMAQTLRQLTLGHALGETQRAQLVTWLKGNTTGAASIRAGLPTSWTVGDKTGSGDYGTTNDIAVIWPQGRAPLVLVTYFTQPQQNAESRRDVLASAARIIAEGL

| SMILES | AZT MPC4 ECL1002 (ECL1002) | AZT MPC4 TEM-10 ec302 (ec302 TEM-10) | AZT MPC4 CMY-6 EC1010 (EC1010 CMY-6) | PAM1032/KPC-2 Biapenem MPC64 (PAM1032/KPC-2) | BPM MPC1 OXA-48 KP1086 (KP1086 OXA-48) | AZT MPC4 KPC-2 KP1004 (KP1004 KPC-2 [1]) | AZT MPC4 SHV-5 ec308 (ec308 SHV-5) | AZT MPC4 CTX-M-15 KP1009 (KP1009 CTX-M-15) | AZT MPC4 SHV-12 KP1010 (KP1010 SHV-12) | BPM MPC1 KP1004 KPC-2 (KP1004 KPC-2 [2]) | Ki (P99, NCF), uM [3] | Ki [4] | Ki (OXA-48, NCF), uM [5] | Ki (KPC-2, NCF), uM [6] | Ki (CTX-M-14, NCF), uM [7] | PAM1154/KPC-2 Biapenem MPC64 (PAM1154/KPC-2) | TIG MPC4 CTX-M-14 KP1005 (KP1005 CTX-M-14) |
| --- | --- | --- | --- | --- | --- | --- | --- | --- | --- | --- | --- | --- | --- | --- | --- | --- | --- |
| O=C(Cc1cccs1)NC1CB(O)Oc2c(C(=O)O)cccc21 (stereo not drawn) [Compound 1, 2-HYDROXY-4-(2-(THIOPHEN-2-YL)ACETAMIDO)-3,4-DIHYDRO-2H-BENZO[E][1,2]OXABORININE-8-CARBOXYLIC ACID] | Y (Y = 5 μg/mL < MPC@4 ≤ 20 μg/mL) | X (X = MPC@4 ≤ 5 μg/mL) | X (X = MPC@4 ≤ 5 μg/mL) | 40 | Y (Y = 5 μg/mL < MPC@1 ≤ 20 μg/mL) | X (X = MPC@4 ≤ 5 μg/mL) | X (X = MPC@4 ≤ 5 μg/mL) | X (X = MPC@4 ≤ 5 μg/mL) | X (X = MPC@4 ≤ 5 μg/mL) | X (X = MPC@1 ≤ 5 μg/mL) | X (X = Ki ≤ 0.1 μM) | < 100 nM | X (X = Ki ≤ 0.1 μM) | X (X = Ki ≤ 0.1 μM) | X (X = Ki ≤ 0.1 μM) | 2.5 | X (X = MPC@4 ≤ 5 μg/mL) |
| Nc1nnc(C(=O)NC2CB(O)Oc3c(C(=O)O)cccc32)s1 (stereo not drawn) [Compound 2, 4-(5-AMINO-1,3,4-THIADIAZOLE-2-CARBOXAMIDO)-2-HYDROXY-3,4-DIHYDRO-2H-BENZO[E][1,2]OXABORININE-8-CARBOXYLIC ACID] | X (X = MPC@4 ≤ 5 μg/mL) | X (X = MPC@4 ≤ 5 μg/mL) | X (X = MPC@4 ≤ 5 μg/mL) | 20 | X (X = MPC@1 ≤ 5 μg/mL) | X (X = MPC@4 ≤ 5 μg/mL) | X (X = MPC@4 ≤ 5 μg/mL) | X (X = MPC@4 ≤ 5 μg/mL) | X (X = MPC@4 ≤ 5 μg/mL) | X (X = MPC@1 ≤ 5 μg/mL) | X (X = Ki ≤ 0.1 μM) | < 100 nM | X (X = Ki ≤ 0.1 μM) | X (X = Ki ≤ 0.1 μM) | X (X = Ki ≤ 0.1 μM) | 1.25 | X (X = MPC@4 ≤ 5 μg/mL) |
| O=C(O)c1cccc2c1OB(O)CN2S(=O)(=O)Cc1ccccc1 [Compound 4, 4-(BENZYLSULFONYL)-2-HYDROXY-3,4-DIHYDRO-2H-BENZO[E][1,4,2]OXAZABORININE-8-CARBOXYLIC ACID] | Z (Z = MPC@4 > 20 μg/mL) | Z (Z = MPC@4 > 20 μg/mL) | Z (Z = MPC@4 > 20 μg/mL) | >80 | Z (Z = MPC@1 > 20 μg/mL) | Z (Z = MPC@4 > 20 μg/mL) | Z (Z = MPC@4 > 20 μg/mL) | Z (Z = MPC@4 > 20 μg/mL) | Z (Z = MPC@4 > 20 μg/mL) | X (X = MPC@1 ≤ 5 μg/mL) | X (X = Ki ≤ 0.1 μM) | < 100 nM | X (X = Ki ≤ 0.1 μM) | X (X = Ki ≤ 0.1 μM) | X (X = Ki ≤ 0.1 μM) | 5 | Z (Z = MPC@4 > 20 μg/mL) |
